These results are taken from PMC8370666 (Journal of the Iranian Chemical Society, 2021).

Usually inhibition stands for the change of the read-out against control, counted positive when it falls. As a reminder, the IC50 is the concentration that gives 50% inhibition. Lower therefore signals inhibition by little substance.

What all share (assay): biochemical
Assay [1] addresses vaccinia virus capping enzyme (D1-D12) (Vaccinia virus, UniProt P04298). The following applies: read-out: % of inhibition at 50 μM, Vaccinia virus D1-D12.
For a further assay, the target named is SARS-CoV nsp14 (Severe acute respiratory syndrome coronavirus, UniProt P0C6X7). Particulars: for IC50: SARS-Cov nap14 IC50; for inhibition at 50 µM: read-out: % of inhibition at 50 μM, SARs-Cov nsp 14.
Assay [2] has as its target human RNA N7-MTase (hRNMT) (Homo sapiens, UniProt O43148). Type of assay: biochemical. Particulars: for inhibition at 50 µM: read-out: % of inhibition at 50 μM, hRNMT.

Molecules are shown by their SMILES. Bounds are passed on as bounds.

Sequence of human RNA N7-MTase (hRNMT) (O43148 whole entry): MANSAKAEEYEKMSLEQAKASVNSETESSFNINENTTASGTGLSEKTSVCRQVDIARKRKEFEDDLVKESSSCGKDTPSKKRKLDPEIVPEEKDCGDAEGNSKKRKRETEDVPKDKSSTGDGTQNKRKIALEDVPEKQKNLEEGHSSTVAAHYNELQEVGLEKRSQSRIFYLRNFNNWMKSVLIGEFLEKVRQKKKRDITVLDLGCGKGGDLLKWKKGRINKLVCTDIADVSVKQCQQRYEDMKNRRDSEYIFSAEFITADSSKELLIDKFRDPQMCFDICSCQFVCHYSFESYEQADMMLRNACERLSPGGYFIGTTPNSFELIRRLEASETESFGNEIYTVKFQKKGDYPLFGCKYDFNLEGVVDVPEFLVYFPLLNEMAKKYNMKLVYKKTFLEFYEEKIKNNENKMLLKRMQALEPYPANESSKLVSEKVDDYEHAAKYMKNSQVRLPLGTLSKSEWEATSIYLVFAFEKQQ

Take `N#CC1=C(N)OC2=C(CC(=O)CC2)C1c1ccccc1` (centres unmarked) [Compound 4a, 2-Amino-6-oxo-4-phenyl-5,6,7,8-tetrahydro-4H-chromene-3-carbonitrile]: in assay [1], the inhibition at 50 µM was determined as 89.3 ± 7.89%. On SARS-CoV nsp14, 0.63 ± 0.32 µM corresponded to half-maximal inhibition (IC50) and the inhibition at 50 µM was 93.4 ± 3.68%. In addition, in assay [2], the “% of inhibition at 50 μM, hRNMT” value was “high inhibitions”; the IC50 is below 0.05 µM; the inhibition at 50 µM worked out at 92.3 ± 5.41%.

For the compound `N#CC1=C(N)OC2=C(CC(=O)CC2)C1c1ccccc1Cl` (centres unmarked) [Compound 4b, 2-Amino-4-(2-chlorophenyl)-6-oxo-5,6,7,8-tetrahydro-4H-chromene-3-carbonitrile], the inhibition at 50 µM in assay [1] worked out at 98.3 ± 5.42%; at SARS-CoV nsp14, 87.5 ± 8.21%; in assay [2], 94.6 ± 7.68%. For the same compound, the IC50 at SARS-CoV nsp14 was 0.62 ± 0.32 µM; in assay [2], 0.41 ± 0.26 µM. Moreover, the “% of inhibition at 50 μM, hRNMT” value in assay [2] is recorded as “high inhibitions”.

Consider `COc1ccc(C2C(C#N)=C(N)OC3=C2CC(=O)CC3)cc1` (centres unmarked) [Compound 4c, 2-Amino-4-(4-methoxyphenyl)-6-oxo-5,6,7,8-tetrahydro-4H-chromene-3-carbonitrile], for which the inhibition at 50 µM is 49.4 ± 6.92% in assay [1], 34.6 ± 4.62% on SARS-CoV nsp14 and 51.7 ± 4.62% in assay [2]. In addition, the IC50 against SARS-CoV nsp14 amounted to 16.4 ± 2.7 µM; in assay [2], 32.6 ± 1.7 µM.

As to `N#CC1=C(N)OC2=C(c3sc(N)c(C#N)c3CC2)C1c1ccccc1` (centres unmarked) [Compound 6a, 2,7-Diamino-9-phenyl-5,9-dihydro-4H-thieno[2,3-f]chromene-3,8-dicarbonitrile], the inhibition at 50 µM in assay [1] was 79.3 ± 5.37%. In addition, on SARS-CoV nsp14, the midpoint of inhibition, the IC50, lay at 26.4 ± 3.57 µM and the inhibition at 50 µM is 68.2 ± 4.53%. In addition, in assay [2], the “% of inhibition at 50 μM, hRNMT” value was “high inhibitions”; the IC50 turned out to be 36.5 ± 6.27 µM; the inhibition at 50 µM was found to be 80.3 ± 3.74%.

With `COc1ccc(C2C(C#N)=C(N)OC3=C2c2sc(N)c(C#N)c2CC3)cc1` (centres unmarked) [Compound 6c, 2,7-Diamino-9-(4-methoxyphenyl)-5,9-dihydro-4H-thieno[2,3-f]chromene-3,8-dicarbonitrile], the inhibition at 50 µM in assay [1] came to 92.2 ± 5.22%; at SARS-CoV nsp14, 88.2 ± 4.26%; in assay [2] it was 92.2 ± 5.22%. The figures for the IC50 (against SARS-CoV nsp14; in assay [2]) were 0.45 ± 0.19 µM and below 0.05 µM, respectively. Further, the “% of inhibition at 50 μM, hRNMT” value in assay [2] is on record as “high inhibitions”.

Turning to `CCOC(=O)c1c(N)sc2c1CCC1=C2C(c2ccccc2)C(C#N)=C(N)O1` (centres unmarked) [Compound 6d, Ethyl 2,7-diamino-8-cyano-9-phenyl-5,9-dihydro-4H-thieno[2,3-f]chromene-3-carboxylate], the inhibition at 50 µM came out at 36.3 ± 5.22% in assay [1], 42.6 ± 4.65% on SARS-CoV nsp14 and 40.3 ± 6.27% in assay [2]. In addition, the IC50 came to 26.7 ± 5.73 µM against SARS-CoV nsp14 and 10.5 ± 2.69 µM in assay [2].

Turning to `CCOC(=O)c1c(N)sc2c1CCC1=C2C(c2ccccc2Cl)C(C#N)=C(N)O1` (centres unmarked) [Compound 6e, Ethyl 2,7-diamino-9-(2-chlorophenyl)-8-cyano-5,9-dihydro-4H-thieno[2,3-f]chromene-3-carboxylate], the figures for the inhibition at 50 µM (in assay [1]; on SARS-CoV nsp14; in assay [2]) were 92.5 ± 6.9%, 89.2 ± 8.27% and 80.2 ± 6.28%, respectively. Further, the IC50 on SARS-CoV nsp14 was determined as 0.39 ± 0.25 µM; in assay [2], 0.29 ± 0.08 µM. In addition, the “% of inhibition at 50 μM, hRNMT” value in assay [2] was “high inhibitions”.

For `CCOC(=O)c1c(N)sc2c1CCC1=C2C(c2ccc(OC)cc2)C(C#N)=C(N)O1` (centres unmarked) [Compound 6f, Ethyl 2,7-diamino-8-cyano-9-(4-methoxyphenyl)-5,9-dihydro-4H-thieno[2,3-f]chromene-3-carboxylate], the values for the inhibition at 50 µM (in assay [1]; at SARS-CoV nsp14; in assay [2]) were 44.8 ± 5.08%, 58.3 ± 3.65% and 62.5 ± 5.84%, respectively. In addition, the values for the IC50 (against SARS-CoV nsp14; in assay [2]) were 36.4 ± 4.51 µM and 1.26 ± 0.58 µM, respectively.

In the case of `N#CC1=C(N)OC2=C(C=C(c3c(N)n[nH]c3N)CC2)C1c1ccccc1Cl` (centres unmarked) [Compound 9a, 2-Amino-4-(2-chlorophenyl)-6-(3,5-diamino-1H-pyrazol-4-yl)-7,8-dihydro-4H-chromene-3-carbonitrile], the values for the inhibition at 50 µM (in assay [1]; at SARS-CoV nsp14; in assay [2]) were 95.5 ± 3.23%, 96.3 ± 2.4% and 93.6 ± 3.71%, respectively. Also, the IC50 on SARS-CoV nsp14 was 0.42 ± 0.19 µM; in assay [2], below 0.05 µM. Also, the “% of inhibition at 50 μM, hRNMT” value in assay [2] was “high inhibitions”.

Consider `N#CC1=C(N)OC2=C(C=C(c3c(N)nn(-c4ccccc4)c3N)CC2)C1c1ccccc1Cl` (centres unmarked) [Compound 9b, 2-Amino-4-(2-chlorophenyl)-6-(3,5-diamino-1-phenyl-1H-pyrazol-4-yl)-7,8-dihydro-4H-chromene-3-carbonitrile], for which the inhibition at 50 µM in assay [1] is 96.1 ± 2.48%. For the same compound, at SARS-CoV nsp14, the IC50 was found to be 0.36 ± 0.2 µM and the inhibition at 50 µM was found to be 93.3 ± 4.17%. Besides, in assay [2], the “% of inhibition at 50 μM, hRNMT” value is recorded as “high inhibitions”; 1.91 ± 1.32 µM corresponded to half-maximal inhibition (IC50); the inhibition at 50 µM is 90.3 ± 5.2%.

In the case of `CC1=CSC(=C2C(=O)CCC3=C2C(c2ccccc2Cl)C(C#N)=C(N)O3)N1c1ccccc1` (centres unmarked) [Compound 15, 2-Amino-4-(2-chlorophenyl)-5-(4-methyl-3-phenylthiazol-2(3H)-ylidene)-6-oxo-5,6,7,8-tetrahydro-4H-chromene-3-carbonitrile], the inhibition at 50 µM in assay [1] was found to be 90.4 ± 5.68%; at SARS-CoV nsp14, 89.2 ± 5.83%; in assay [2], 87.3 ± 6.42%. Also, the results for the IC50 (on SARS-CoV nsp14; in assay [2]) were 22.6 ± 3.58 µM and 4.91 ± 2.34 µM, respectively. In addition, the “% of inhibition at 50 μM, hRNMT” value in assay [2] is “high inhibitions”.

Regarding `CCOC(=O)CSC(Nc1ccccc1)=C1C(=O)CCC2=C1C(c1ccccc1Cl)C(C#N)=C(N)O2` (centres unmarked) [Compound 16, Ethyl 2-(((2-amino-4-(2-chlorophenyl)-3-cyano-6-oxo-7,8-dihydro-4H-chromen-5(6H)-ylidene)(phenylamino)methyl)thio)acetate], the inhibition at 50 µM in assay [1] came to 84.3 ± 6.29%. On SARS-CoV nsp14, the IC50 was 0.53 ± 0.18 µM and the inhibition at 50 µM was found to be 89.2 ± 6.58%. Also, in assay [2], the “% of inhibition at 50 μM, hRNMT” value is given as “high inhibitions”; inhibition was half-maximal at 1.29 ± 0.98 µM (IC50); the inhibition at 50 µM came to 90.3 ± 4.66%.

As for `O=C1CCc2c(sc(=S)n2-c2ccccc2)C1` [Compound 18, 3-Phenyl-2-thioxo-2,3,4,5-tetrahydrobenzo[d]thiazol-6(7H)-one], the inhibition at 50 µM in assay [1] is 63.7 ± 7.08%; at SARS-CoV nsp14, 56.4 ± 5.73%; in assay [2] it was 65.5 ± 4.8%. In addition, the half-maximal inhibitory concentration (IC50) came to 53.3 ± 5.62 µM against SARS-CoV nsp14 and 26.5 ± 6.28 µM in assay [2].

On to `CCOC1C(C#N)=C(N)OC2=C1c1sc(=S)n(-c3ccccc3)c1CC2` (centres unmarked) [Compound 20a, 7-Amino-9-ethoxy-3-phenyl-2-thioxo-3,4,5,9-tetrahydro-2H-chromeno[6,5-d]thiazole-8-carbonitrile], for which the inhibition at 50 µM stood at 53.5 ± 8.25% in assay [1], 49.2 ± 6.73% at SARS-CoV nsp14 and 70.4 ± 5.9% in assay [2]. Also, the half-maximal inhibitory concentration (IC50) is 42.4 ± 5.63 µM against SARS-CoV nsp14 and 58.3 ± 4.95 µM in assay [2].

Regarding `CCOC1C(C#N)=C(O)OC2=C1c1sc(=S)n(-c3ccccc3)c1CC2` (centres unmarked) [Compound 20b, 9-Ethoxy-7-hydroxy-3-phenyl-2-thioxo-3,4,5,9-tetrahydro–2H-chromeno[6,5-d]thiazole-8-carbonitrile], the inhibition at 50 µM came to 41.4 ± 4.93% in assay [1], 36.1 ± 6.83% at SARS-CoV nsp14 and 39.5 ± 6.83% in assay [2]. Moreover, the values for the IC50 (on SARS-CoV nsp14; in assay [2]) were 32.6 ± 3.8 µM and 18.8 ± 5.36 µM, respectively.

Consider `N#Cc1c(N)sc2c1CCc1c-2sc(=S)n1-c1ccccc1` [Compound 21a, 7-Amino-3-phenyl-2-thioxo-2,3,4,5-tetrahydrothieno[2',3':3,4]benzo[1,2-d]thiazole-6-carbonitrile], for which the inhibition at 50 µM in assay [1] was determined as 57.8 ± 5.82%; at SARS-CoV nsp14, 49.2 ± 6.73%; in assay [2], 60.3 ± 5.37%. The IC50 against SARS-CoV nsp14 is 18.5 ± 2.68 µM; in assay [2], 56.3 ± 4.62 µM.

Turning to `CCOC(=O)c1c(N)sc2c1CCc1c-2sc(=S)n1-c1ccccc1` [Compound 21b, Ethyl 7-amino-3-phenyl-2-thioxo-2,3,4,5-tetrahydrothieno[2',3':3,4]benzo[1,2-d]thiazole-6-carboxylate], the inhibition at 50 µM in assay [1] came out at 90.4 ± 6.53%; at SARS-CoV nsp14, 87.2 ± 5.36%; in assay [2] it was 88.2 ± 5.38%. The IC50 stood at 1.08 ± 0.58 µM against SARS-CoV nsp14 and 0.94 ± 0.36 µM in assay [2]. Also, the “% of inhibition at 50 μM, hRNMT” value in assay [2] is on record as “high inhibitions”.

Turning to `N#CC1=C(N)OC2=C(c3sc(=S)n(-c4ccccc4)c3CC2)C1c1ccccc1` (centres unmarked) [Compound 23a, 7-Amino-3,9-diphenyl-2-thioxo-3,4,5,9-tetrahydro-2H-chromeno[6,5-d]thiazole-8-carbonitrile], the figures for the inhibition at 50 µM (in assay [1]; on SARS-CoV nsp14; in assay [2]) were 45.8 ± 6.38%, 56.6 ± 6.72% and 42.7 ± 5.88%, respectively. Moreover, the IC50 came to 32.4 ± 4.58 µM on SARS-CoV nsp14 and 24.7 ± 5.47 µM in assay [2].

For `N#CC1=C(N)OC2=C(c3sc(=S)n(-c4ccccc4)c3CC2)C1c1ccc(Cl)cc1` (centres unmarked) [Compound 23b, 7-Amino-9-(4-chlorophenyl)-3-phenyl-2-thioxo-3,4,5,9-tetrahydro-2H-chromeno[6,5-d]thiazole-8-carbonitrile], the inhibition at 50 µM in assay [1] stood at 96.3 ± 8.92%. At SARS-CoV nsp14, the IC50 turned out to be 0.35 ± 0.15 µM and the inhibition at 50 µM was determined as 94.5 ± 6.83%. In assay [2], the “% of inhibition at 50 μM, hRNMT” value is listed as “high inhibitions”; the IC50 is below 0.05 µM; the inhibition at 50 µM was 96.4 ± 7.24%.

Turning to `CCOC(=O)C1=C(N)OC2=C(c3sc(=S)n(-c4ccccc4)c3CC2)C1c1ccccc1` (centres unmarked) [Compound 23c, Ethyl 7-amino-3,9-diphenyl-2-thioxo-3,4,5,9-tetrahydro-2H-chromeno[6,5-d]thiazole-8-carboxylate], the inhibition at 50 µM in assay [1] was determined as 70.4 ± 5.63%; at SARS-CoV nsp14, 64.3 ± 5.53%; in assay [2], 59.3 ± 4.68%. For the same compound, the half-inhibitory concentration (IC50) against SARS-CoV nsp14 turned out to be 28.4 ± 3.26 µM; in assay [2], 70.3 ± 3.8 µM.

As for `Nc1ncnc2c1ncn2[C@@H]1O[C@H](C[C@@H](N)CC[C@H](N)C(=O)O)[C@@H](O)[C@H]1O` [Sinefungin, reference compound], the inhibition at 50 µM on SARS-CoV nsp14 worked out at 98.36 ± 0.23%. In addition, in assay [2], the IC50 is below 0.05 µM.
